Converted amounts (≈) assume the structure as drawn. Where two headings read alike, the source gives them in different places.
Key:
white blood cells = test: Luminol dependent chemiluminescence of PMA-stimulated white blood cells; format: cell-based; settings: Homo sapiens, 0.5 h, read-out: White blood cell chemiluminescence (IC50 mg/ml)
Experimental: Anti-inflammatory activity has been assessed by measuring luminol dependent chemiluminescence generated by free radicals released from whole blood and from white blood cells. The assay has been performed using the following protocol: 10 μl of fresh human blood is mixed with 0.980 ml of Hanks saline solution containing 5×10^−5 M luminol and the test sample (at various concentrations). The chemiluminescent response is recorded continuously for 30 minutes at a temperature of 37° C. The results are expressed as IC50 (mg/ml), i.e. as the minimum sample concentration inhibiting chemiluminescence by 50% with respect to the control. To isolate white blood cells (WBC) from whole blood one proceeds in the following manner: 1 ml of fresh blood is layered onto a Hipaque gradient (p=1.119) and centrifuged at 250×g for 60 minutes at room temperature. Following centrifugation, the pellet containing the white blood cells is washed twice, using a large volume of cold Hanks saline solution. Finally, the washed WBCs are resuspended in 0.1 ml di HBSS containing foetal calf serum. 10^6 WBC are added to a chemiluminometer cuvette. 10 μl of PMA (final concentration equal to 10 nM) are added to induce the formation of free radicals. The chemiluminescent response is recorded continuously for 30 minutes at a temperature of 37° C. […]

[1] = system: Candida albicans ATCC 2091; test: Multiple dilution assay, growth in culture broth; format: cell-based; settings: for T0 (CFU/ml) / T7d (CFU/ml) / T14d (CFU/ml) / T21d (CFU/ml) / T28d (CFU/ml): 30° C.; for T7d (CFU/ml): 7 days; for T14d (CFU/ml): 14 days; for T21d (CFU/ml): 21 days; for T28d (CFU/ml): 28 days
Experimental: (§1) To the purpose of detecting any antimicrobial activity of the Ajuga reptans extract and the individual phenylpropanoid isoteupoloside (FPD) and teupolioside (FPA), an assay has been prepared, generally known as multiple dilution assay, with the following microbial strains: Pseudomonas aeruginosa ATCC 9027; Candida albicans ATCC 2091. The phenylpropanoids FPD, FPA and the Extract 2 of Ajuga reptans were assayed at the concentrations of 0.5 mg/ml, 2 mg/ml and 5 mg/ml. The microbial strains for the test were inoculated in culture broths (in Triptone soy broth medium) containing the substances to be assayed at the concentrations described above. In parallel with these tests, culture broths containing the microbial strain alone have been prepared (controls). The culture-broths have been incubated at 30° C. for a period of 28 days. […] A certain number of serial dilutions have been prepared for each sample in order to determine the microbial load of each culture-broth. Each dilution has been assayed in triplicate on solid medium. Then number of CFUs reported in the table is the mean of the counts performed on the triplicate assays.

[2] = system: Pseudomonas aeruginosa ATCC 9027; test: Multiple dilution assay, growth in culture broth; format: cell-based; settings: for T0 (CFU/ml) / T7d (CFU/ml) / T14d (CFU/ml) / T21d (CFU/ml) / T28d (CFU/ml): 30° C.; for T7d (CFU/ml): 7 days; for T14d (CFU/ml): 14 days; for T21d (CFU/ml): 21 days; for T28d (CFU/ml): 28 days
Experimental: as §1

[3] = Metal chelation, spectrophotometric (Ni2+); format: physicochemical
Text: The chelating activities of Ajuga reptans extracts in relation to Fe^2+, Fe^3+, Cu^2+ and Ni^2+ metal ions has been determined by means of spectrophotometric measurements using a Shimadzu 1770 UV spectrophotometer. The activities of chelating agents depends on the association constant (equilibrium) of their reactions with the metals according to the following reaction:
[formula] wherein Keq is the equilibrium constant equal to the ratio of concentrations at equilibrium of a complex and a product of equilibrium concentrations of metal ions and a chelator:
The method used for determining chelating activities is well documented in the literature (Korkina L G, Afarras'er I B. Antioxidant and chelating properties of flavonoids. Adv. Pharmacol., 1997, 38:151-63). The results are expressed as Keq (M^−1) calculated for a pure phenylpropanoid. This way the chelating activity against ferrous (Fe II), ferric (Fe III), copper (Cu II) and nickel ions has been calculated.

tyrosinase = test: Tyrosinase inhibition, oxidation of L-tyrosine to L-DOPA; format: biochemical; settings: 250 μg/ml
Text: The enzyme tyrosinase catalyses the reactions leading to melanin biosynthesis from tyrosine. […] Substances inhibiting tyrosinase activity produce a clearing/bleaching effect on the skin, since they block melanin synthesis. The method used to determine the inhibition of tyrosinase activity in the oxidation reaction of L-tyrosine to L-DOPA is that described in Kim et al. […] Biol. Pharm. […] The method applied for determination of the inhibition of tyrosinase activity in the conversion of L-DOPA to DOPAquinone is that described in Masamoto et al. (Mushroom tyrosinase inhibitory activity of esculetin isolated from seeds of Euphorbia lathyris L. Biosci. Biotechnol. Biochem., 67(3), 631-634, 2003).

For C[C@@H]1O[C@@H](O[C@@H]2[C@@H](O)[C@H](OCCc3ccc(O)c(O)c3)O[C@H](CO)[C@H]2OC(=O)/C=C/c2ccc(O)c(O)c2)[C@H](O[C@@H]2O[C@H](CO)[C@H](O)[C@H](O)[C@H]2O)[C@H](O)[C@H]1O [Teupolioside, teupolioside], the IC50 (white blood cells; 10^6 WBC, PMA 10 nM, 30 min, 37° C.) was 0.5 mg/mL (≈ 636 µM), the “Anti-microbial activity on Candida albicans ATCC 2091, comparison in words” value [1] was “activity similar to isoteupolioside” and the “Inhibiting action on the growth of Candida albicans ATCC 2091, in words” value ([1]; 5 mg/ml) was “significant inhibiting action”. The “Anti-microbial activity on Pseudomonas aeruginosa ATCC 9027, comparison in words” value [2] was “activity similar to isoteupolioside”, the “Inhibiting action on the growth of Pseudomonas aeruginosa ATCC 9027, in words” value ([2]; 5 mg/ml) was “significant inhibiting action” and the “Ni^2+ (Keq, M^−1)” value ([3]; calculated for a pure phenylpropanoid) was 2658 ± 365 M⁻¹. For the same molecule, the “Test L-tyrosine-DOPA inhibitory activity (%)” value (tyrosinase) was 29.6%.

For CC1OC(OC2C(O)C(COC(=O)C=Cc3ccc(O)c(O)c3)OC(OCCc3ccc(O)c(O)c3)C2O)C(OC2OC(CO)C(O)C(O)C2O)C(O)C1O (centres unmarked) [Isoteupolioside, isoteupolioside], the IC50 (white blood cells) was 0.4 mg/mL (≈ 508 µM), the “T0 (CFU/ml)” value ([1]; 0.5 mg/ml) was 9.7 × 10^5 CFU/ml and the “T7d (CFU/ml)” value ([1]; 0.5 mg/ml) was 1.7 × 10^6 CFU/ml. For the same molecule, the “T14d (CFU/ml)” value ([1]; 0.5 mg/ml) was 5.8 × 10^5 CFU/ml, the “T21d (CFU/ml)” value ([1]; 0.5 mg/ml) was 7.3 × 10^7 CFU/ml and the “T28d (CFU/ml)” value ([1]; 0.5 mg/ml) was 6.5 × 10^7 CFU/ml. The “T0 (CFU/ml)” value ([1]; 2 mg/ml) was 9.1 × 10^5 CFU/ml, the “T7d (CFU/ml)” value ([1]; 2 mg/ml) was 1.1 × 10^6 CFU/ml and the “T14d (CFU/ml)” value ([1]; 2 mg/ml) was 2.3 × 10^6 CFU/ml. For the same molecule, the “T21d (CFU/ml)” value ([1]; 2 mg/ml) was 1.2 × 10^5 CFU/ml, the “T28d (CFU/ml)” value ([1]; 2 mg/ml) was 3.8 × 10^3 CFU/ml and the “Inhibiting action on the growth of Candida albicans ATCC 2091, in words” value ([1]; 5 mg/ml) was “significant inhibiting action”. For the same molecule, the “T0 (CFU/ml)” value ([1]; 5 mg/ml) was 8.1 × 10^5 CFU/ml, the “T7d (CFU/ml)” value ([1]; 5 mg/ml) was 3.1 × 10^5 CFU/ml and the “T14d (CFU/ml)” value ([1]; 5 mg/ml) was 8.5 × 10^3 CFU/ml. The “T21d (CFU/ml)” value ([1]; 5 mg/ml) was 5 × 10^1 CFU/ml, the “T0 (CFU/ml)” value ([2]; 0.5 mg/ml) was 9.6 × 10^5 CFU/ml and the “T7d (CFU/ml)” value ([2]; 0.5 mg/ml) was 1.2 × 10^6 CFU/ml. For the same molecule, the “T14d (CFU/ml)” value ([2]; 0.5 mg/ml) was 2.1 × 10^7 CFU/ml, the “T21d (CFU/ml)” value ([2]; 0.5 mg/ml) was 2.4 × 10^4 CFU/ml and the “T28d (CFU/ml)” value ([2]; 0.5 mg/ml) was 9.8 × 10^3 CFU/ml. For the same molecule, the “T0 (CFU/ml)” value ([2]; 2 mg/ml) was 5.9 × 10^5 CFU/ml, the “T7d (CFU/ml)” value ([2]; 2 mg/ml) was 1.1 × 10^6 CFU/ml and the “T14d (CFU/ml)” value ([2]; 2 mg/ml) was 1.9 × 10^6 CFU/ml. For the same molecule, the “T21d (CFU/ml)” value ([2]; 2 mg/ml) was 9.2 × 10^3 CFU/ml, the “T28d (CFU/ml)” value ([2]; 2 mg/ml) was 9.8 × 10^3 CFU/ml and the “Inhibiting action on the growth of Pseudomonas aeruginosa ATCC 9027, in words” value ([2]; 5 mg/ml) was “significant inhibiting action”. The “T0 (CFU/ml)” value ([2]; 5 mg/ml) was 3.6 × 10^5 CFU/ml, the “T7d (CFU/ml)” value ([2]; 5 mg/ml) was 9.8 × 10^5 CFU/ml and the “T14d (CFU/ml)” value ([2]; 5 mg/ml) was 1.1 × 10^5 CFU/ml. The “T21d (CFU/ml)” value ([2]; 5 mg/ml) was 2.5 × 10^3 CFU/ml, the “T28d (CFU/ml)” value ([2]; 5 mg/ml) was 9 × 10^1 CFU/ml and the “Ni^2+ (Keq, M^−1)” value [3] was 2631 ± 373 M⁻¹. The “Test L-tyrosine-DOPA inhibitory activity (%)” value (tyrosinase) was 30.9%.
